PMC10385865, “Synthesis and Anticancer Activity of Novel Dual Inhibitors of Human Protein Kinases CK2 and PIM-1” (Pharmaceutics, 2023)
Read-outs that look alike come from different tables or passages of the source.

Experiments:
MCF-7 (breast carcinoma) = assay: MTT-based viability assay, MCF-7; assay type: cell-based, human; conditions: for IC50: Homo sapiens, read-out: IC50 MCF-7
Protocol: After incubation with the tested compounds, an MTT test was performed as described previously. Optical densities were measured at 570 nm using a BioTek microplate reader (BioTek Instruments, Inc., Winooski, VT, USA). All measurements were carried out in a minimum of three biological replicates.
. The IC50 values describing the half-maximal effective concentration of each tested compound were calculated and are summarized in Table 2. […].

K-562 cells [1] = assay: Acridine orange staining, microscopy and fluorescence intensity assay (autophagy); assay type: cell-based, human; conditions: for induction of autophagy (in words): BCR-ABL-positive CML cell line K-562, 48 h; for red fluorescence (red-stained lysosomes), AO, % of the control: K-562, 48 h, 4 at both concentrations, rac-6 at 15 µM, not statistically significant
Protocol: K-562 cells were seeded in 6-well plates at 2.5 × 10^5/mL and subjected to the tested compounds. After 48 h of incubation, cells were centrifugated at 200× g at 4 °C for 5 min, subsequently suspended in PBS containing 2 µg/mL AO and Hoechst 33342, and incubated at 37 °C for 20 min in the dark. Subsequently, cells were centrifugated at 200× g at 4 °C for 5 min. Then, 5 µL of the sample was mounted on a glass slide and covered with a coverslip and examined under a Nikon ECLIPSE Y-TV55 fluorescent microscope.
K-562 cells were seeded in 6-well plates at 2.5 × 10^5/mL and subjected to the tested compounds. After 48 h of incubation, cells were centrifugated at 200× g at 4 °C for 5 min, subsequently suspended in PBS containing 2 µg/mL AO and Hoechst 33342, and incubated at 37 °C for 20 min in the dark. Subsequently, cells were centrifugated at 200× g at 4 °C for 5 min, and 150 µL of the sample was measured on dark plates (Sarstedt). The fluorescence intensity of AO at Ex. 502 nm/Em. 520–524 nm (aggregated or DNA complexed form), Ex. 457 nm/Em. 630–644 nm (aggregated or RNA complexed form), Ex. 540 nm/Em. 640–660 nm (red-stained lysosomes), and Ex. 488 nm/Em. 540–550 nm (yellowish stained lysosomes) and that of Hoechst (nuclei, Ex. 361 nm/Em. 497 nm) in K-562 cells was measured with a Synergy H4 Hybrid Multi-Mode Microplate Reader (BioTek Instruments, Inc., Winooski, VT, USA). The data were normalized to the intensity of Hoechst (nuclei, Ex. 361 nm/Em. 497 nm) in comparison to control cells serving as the reference point, showing 100%.
In order to conclude the mechanism of death of K-562 cells treated with the tested active agents, microscopic observations and a fluorescence intensity assay were performed after staining the cells with an acridine orange (AO). The employed dye is a cell-permeable fluorophore that can be protonated and trapped in acidic vesicular organelles (AVOs). Its metachromatic shift to red fluorescence is concentration-dependent, and therefore, acridine orange fluoresces red in AVOs, such as autolysosomes, can be detected quantitatively. In addition, OA has the ability to intercalate between the nitrogenous bases of the nucleic acids present in cells and their labeling. DNA or RNA is digested during the autophagy process, and the resulting damage makes it easier to bind with OA molecules.
After 48 h of treatment with 4 and rac-6, K-562 cells, were subjected to staining with Hoechst (nuclei staining) and AO, followed by fluorescent microscopy and a fluorescence intensity measurement. […] Since the obtained microscopic data were inconclusive, we additionally measured fluorescence intensity of AO at four different wavelengths, i.e., Ex. 502 nm/Em. 520–524 nm (aggregated or DNA complexed form), Ex. 457 nm/Em. 630–644 nm (aggregated or RNA complexed form), Ex. 540 nm/Em. 640–660 nm (red-stained lysosomes), and Ex. 488 nm/Em. 540–550 nm (yellowish stained lysosomes) (Figure 6b).

CCRF-CEM cells [2] = assay: Cell cycle progression by flow cytometry (PI), CCRF-CEM; assay type: cell-based, human; conditions: 48 h
Protocol: (§1) MCF-7, CCRF-CEM, and K-562 cells were cultured in 6-well plates and treated with the tested compounds for 48 h. After exposure to the compounds, the cells were collected and washed with cold PBS and fixed at −20 °C in 70% ethanol for at least 24 h. Subsequently, cells were washed in PBS and stained with 50 μg/mL PI (propidium iodide) and 100 μg/mL RNase solution in PBS supplemented with 0.1% v/v Triton X-100 for 30 min in the dark at RT. Cellular DNA content was determined by flow cytometry employing a BD FACSCanto II flow cytometer (BD Biosciences, San Jose, CA, USA). The obtained DNA histograms were analyzed using MacCycle software (Phoenix Flow Systems, San Diego, CA, USA) for evaluation of the distribution of the cells in different phases of the cell cycle.
(§2) Since CK2 controls cell cycle progression and, consequently, its inhibition can affect the distribution of cells in the individual phases of the cell cycle, we tested the cell cycle progression in CCRF-CEM, K-562, and MCF-7 cells after treatment with 4 and rac-6. Representative plots DNA histograms with the calculations of cell percentages in each phase of the cell cycle are depicted in Figure 7. […] Accumulation of cells in sub-G1 indicates DNA degradation, as often seen in apoptotic cells, confirming the results obtained with annexin V and PI staining.

K-562 cells [3] = assay: Cell cycle progression by flow cytometry (PI), K-562; assay type: cell-based, human; conditions: for K-562 cells in S phase (maximum): K-562, 15 µM, 48 h; for cell cycle arrest (phase, in words): K-562, 48 h
Protocol: as §1, §2

K-562 cells [4] = assay: Annexin V/propidium iodide apoptosis, flow cytometry, K-562; conditions: for viability at 5 µM / viability at 10 µM: Homo sapiens, K562, 48 h, read-out: Viable; for Early apoptosis / Late apoptosis / Necrosis: mean±SD
Protocol: (§3) MCF-7 cells were seeded in 6-well plates at 1.2 × 10^5 cells/well, whereas CCRF-CEM and K-562 cells were seeded in 24-well plates at a density of 2 × 10^5/mL. Cells were treated with the tested compounds used in 5 µM and 10 µM concentrations. Then, the plates were incubated for 48 h. After exposure to the examined compounds, the cells were collected and centrifugated at 200× g at 4 °C for 5 min, washed twice in cold phosphate-buffered saline (PBS), and subsequently suspended in binding buffer at 1 × 10^6 cells/mL. Subsequently, 100-μL aliquots of the cell suspension were labeled according to the instructions of the respective manufacturer’s kit. Briefly, annexin V-fluorescein isothiocyanate and propidium iodide (BD Biosciences, Pharmingen, San Diego, CA, USA) were added to the cell suspension, and the mixture was vortexed, then incubated for 15 min at RT in the dark. A cold binding buffer (400 μL) was then added, and the cells were vortexed again and kept on ice. Flow cytometric measurements were performed within 1 h after labeling. Viable, necrotic, early, and late apoptotic cells were detected by flow cytometry using a BD FACSCanto II flow cytometer and analyzed using BD FACSDiva operating software (BD Biosciences, San Jose, CA, USA).

CCRF-CEM cells [5] = assay: Annexin V/propidium iodide apoptosis, flow cytometry, CCRF-CEM; conditions: 48 h; for Early apoptosis / Late apoptosis / Necrosis: mean±SD; for viability at 5 µM / viability at 10 µM: Homo sapiens, read-out: Viable
Protocol: as §3

Compound | induction of autophagy (in words) (K-562 cells [1]) | red fluorescence (red-stained lysosomes), AO, % of the control (K-562 cells [1]) | cell cycle arrest (phase, in words) (CCRF-CEM cells [2]) | K-562 cells in S phase (maximum) (K-562 cells [3]) | cell cycle arrest (phase, in words) (K-562 cells [3]) | viability at 5 µM (K-562 cells [4]) | viability at 10 µM (K-562 cells [4]) | Early apoptosis (K-562 cells [4]; K-562, 5 µM, 48 h) | Late apoptosis (K-562 cells [4]; K-562, 5 µM, 48 h) | Necrosis (K-562 cells [4]; K-562, 5 µM, 48 h) | percentage of total apoptotic K-562 cells (K-562 cells [4]; K-562, 10 µM, 48 h) | Early apoptosis (K-562 cells [4]; K-562, 10 µM, 48 h) | Late apoptosis (K-562 cells [4]; K-562, 10 µM, 48 h) | Necrosis (K-562 cells [4]; K-562, 10 µM, 48 h) | Early apoptosis (CCRF-CEM cells [5]; 5 µM) | Late apoptosis (CCRF-CEM cells [5]; 5 µM) | Necrosis (CCRF-CEM cells [5]; 5 µM) | Early apoptosis (CCRF-CEM cells [5]; 10 µM) | Late apoptosis (CCRF-CEM cells [5]; 10 µM) | Necrosis (CCRF-CEM cells [5]; 10 µM) | further results
CN(C)c1nc2c(Br)c(Br)c(Br)c(Br)c2[nH]1 [Compound 4, 4,5,6,7-Tetrabromo-N,N-dimethyl-1H-benzimidazol-2-amine, reference compound] | able to induce autophagy | up to 148 % of the control | S-phase arrest | 57.7% | S-phase arrest | 92.3 ± 0.99% | 90.6 ± 4.27% | 1.95±0.61% | 4.70±1.21% | 1.05±0.69% | 8.7% | 1.33±0.67% | 7.43±3.52% | 0.67±0.31% | 1.65±0.78% | 13.55±0.35% | 1.45±0.07% | 1.55±0.07% | 16.75±0.21% | 1.35±0.49% | IC50 (MCF-7 (breast carcinoma); MCF7, 48 h): 14.7 ± 0.27 µM; viability at 5 µM (CCRF-CEM cells [5]): 83.3 ± 0.57%; viability at 10 µM (CCRF-CEM cells [5]): 80.35 ± 0.78%
OC(CNc1nc2c(Br)c(Br)c(Br)c(Br)c2[nH]1)C(F)(F)F (racemic) [rac-6, 1,1,1-Trifluoro-3-[(4,5,6,7-tetrabromo-1H-benzimidazol-2-yl)amino]propan-2-ol] | able to induce autophagy | up to 148 % of the control | G1-phase arrest | 56.1% | S-phase arrest | 87.97 ± 0.81% | 82.8 ± 3.68% | 5.13±0.40% | 5.97±1.02% | 0.63±0.06% | 15.5% | 4.67±1.21% | 10.80±4.06% | 1.70±0.60% | 2.75±0.07% | 18.85±3.61% | 2.45±0.07% | 2.30±0.42% | 44.05±4.03% | 5.00±1.41% | IC50 (MCF-7 (breast carcinoma); MCF7, MTT, 48 h): 9.66 ± 0.31 µM; SI (selectivity index) MCF-7 (MCF-7 (breast carcinoma); IC50 Vero/IC50 cancer cells): 2.11; red fluorescence (in words) (K-562 cells [1]; K-562, 10 µM, 48 h): reduced; yellowish-stained lysosomes, AO fluorescence, % of the control (K-562 cells [1]; K-562, 15 µM, 48 h, Ex. 488 nm/Em. 540–550 nm, normalized to Hoechst): 324 % of the control; leukemia cells accumulated in G1 phase (maximum) (CCRF-CEM cells [2]; 10 µM): 49%; induction of apoptosis (in words) (K-562 cells [4]; K-562, 5 and 10 µM, 48 h): no significant apoptosis observed; cells in early and late apoptosis (CCRF-CEM cells [5]; 10 µM): 47%; viability at 5 µM (CCRF-CEM cells [5]): 76 ± 3.75%; viability at 10 µM (CCRF-CEM cells [5]): 48.6 ± 2.26%
